Our source for the IC50 values is patent US12258354B2, “AhR modulators” (IDEAYA BIOSCIENCES, INC., priority 2018, dated 2025).

A value given as a limit tells only on which side of the number the result lay.

For the test, the target named is T1, hAhR (Homo sapiens, UniProt P35869).
T1 construct: Stably integrated DRE-luciferase cell lines were generated by transducing the both cell lines with Cignal XRE luciferase reporter; endogenous in cells; host or cells: HEPG2 DRE-Luc cells (only the XRE luciferase reporter was transduced)
T1 sequence (P35869 11-848): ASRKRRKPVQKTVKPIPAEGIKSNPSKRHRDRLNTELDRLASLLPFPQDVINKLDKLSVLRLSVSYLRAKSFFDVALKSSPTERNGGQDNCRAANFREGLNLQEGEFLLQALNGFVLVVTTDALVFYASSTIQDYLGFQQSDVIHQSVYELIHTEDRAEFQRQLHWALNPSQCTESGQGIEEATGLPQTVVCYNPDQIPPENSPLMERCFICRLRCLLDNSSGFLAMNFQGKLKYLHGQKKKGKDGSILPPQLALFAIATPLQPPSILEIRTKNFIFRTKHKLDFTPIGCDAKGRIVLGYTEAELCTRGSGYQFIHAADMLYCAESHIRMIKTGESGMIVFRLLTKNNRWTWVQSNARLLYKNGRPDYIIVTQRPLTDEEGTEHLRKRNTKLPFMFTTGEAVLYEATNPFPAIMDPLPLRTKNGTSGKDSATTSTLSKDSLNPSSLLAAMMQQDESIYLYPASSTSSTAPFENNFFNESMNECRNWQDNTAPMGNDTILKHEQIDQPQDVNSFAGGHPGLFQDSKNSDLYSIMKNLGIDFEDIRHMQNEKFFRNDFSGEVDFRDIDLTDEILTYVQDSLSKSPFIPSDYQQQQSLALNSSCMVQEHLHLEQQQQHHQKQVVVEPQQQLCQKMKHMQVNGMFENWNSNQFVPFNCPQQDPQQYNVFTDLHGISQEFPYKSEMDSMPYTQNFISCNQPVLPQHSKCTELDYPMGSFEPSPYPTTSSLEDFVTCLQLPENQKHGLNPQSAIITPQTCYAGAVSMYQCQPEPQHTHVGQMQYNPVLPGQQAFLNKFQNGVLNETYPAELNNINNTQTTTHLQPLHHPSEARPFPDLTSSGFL
Kind of test: DRE-luciferase transcriptional reporter assay in HEPG2 DRE-Luc cells, TCDD-induced (antagonist mode). In kind it is cell-based. The note with it: relative IC50, 3 nM TCDD, 24-hour incubation, firefly luciferase readout. In a few lines:
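Stable DRE(XRE)-luciferase HEPG2 clone seeded in OptiMEM with 0.5% heat-inactivated FBS, then given a semi-log compound dilution plus TCDD at 3 nM final. After 24 h, cells were lysed and firefly luminescence read. Response was normalised between TCDD and vehicle, and relative IC50 was taken as half-reduction between the fitted curve plateaus.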
With `Cc1cc(-c2ncc3nc(C(F)(F)F)ccc3n2)ccc1N1CCOc2cn(C)nc2C1=O` [compound 047, 2-methyl-7-(2-methyl-4-(6-(trifluoromethyl)pyrido[3,2-d]pyrimidin-2-yl)phenyl)-6,7-dihydro-2H-pyrazolo[3,4-f][1,4]oxazepin-8 (5H)-one], the IC50 is below 200 nM.

For the compound `Cc1cc(-c2ccc3nc(C(F)(F)F)ccc3n2)ccc1N1CCOc2cn(C)nc2C1=O` [compound 048, 2-methyl-7-(2-methyl-4-(6-(trifluoromethyl)-1,5-naphthyridin-2-yl)phenyl)-6,7-dihydro-2H-pyrazolo[3,4-f][1,4]oxazepin-8 (5H)-one], the IC50 was below 200 nM. In turn, `Cc1cc(-c2ncc3nc(C(F)(F)F)ccc3n2)ccc1N1CCOc2cnn(C)c2C1` [compound 049, 1-methyl-7-(2-methyl-4-(6-(trifluoromethyl)pyrido[3,2-d]pyrimidin-2-yl)phenyl)-5,6,7,8-tetrahydro-1H-pyrazolo[3,4-f][1,4]oxazepine] came in with a 50% inhibitory concentration (IC50) below 200 nM. In the case of `Cn1ncc2c1C(=O)N(c1ccc(-c3ncc4nc(C(F)(F)F)ccc4n3)cc1)CCO2` [compound 050, 1-methyl-7-(4-(6-(trifluoromethyl)pyrido[3,2-d]pyrimidin-2-yl)phenyl)-6,7-dihydro-1H-pyrazolo[3,4-f][1,4]oxazepin-8 (5H)-one], the 50% inhibitory concentration (IC50) is below 200 nM. For `Cc1cc(-c2ncc3nc(F)ccc3n2)ccc1N1CCOc2cnn(C)c2C1=O` [compound 051, 7-(4-(6-fluoropyrido[3,2-d]pyrimidin-2-yl)-2-methylphenyl)-1-methyl-6,7-dihydro-1H-pyrazolo[3,4-f][1,4]oxazepin-8 (5H)-one], the concentration for half-maximal inhibition (IC50) fell in the range of 200 to 500 nM. The same measure for `Cc1cc(-c2ccc3nc(F)ccc3n2)ccc1N1CCOc2cnn(C)c2C1=O` [compound 052, 7-(4-(6-fluoro-1,5-naphthyridin-2-yl)-2-methylphenyl)-1-methyl-6,7-dihydro-1H-pyrazolo[3,4-f][1,4]oxazepin-8 (5H)-one]: 500 to 1000 nM; for `Cc1cc(-c2ncc3cc(F)ccc3n2)ccc1N1CCOc2cnn(C)c2C1=O` [compound 053, 7-(4-(6-fluoroquinazolin-2-yl)-2-methylphenyl)-1-methyl-6,7-dihydro-1H-pyrazolo[3,4-f][1,4]oxazepin-8 (5H)-one]: 200 to 500 nM. In the case of `Cc1cc(-c2ncc3cc(C(F)(F)F)ccc3n2)ccc1N1CCOc2cccnc2C1=O` [compound 054, 4-(2-methyl-4-(6-(trifluoromethyl)quinazolin-2-yl)phenyl)-3,4-dihydropyrido[2,3-f][1,4]oxazepin-5 (2H)-one] it was 200 to 500 nM.

For `Cc1cc(-c2ncc3cc(C(F)(F)F)ccc3n2)ccc1N1CCOc2cncnc2C1=O` [compound 055, 8-(2-methyl-4-(6-(trifluoromethyl)quinazolin-2-yl)phenyl)-7,8-dihydropyrimido[4,5-f][1,4]oxazepin-9 (6H)-one], the IC50 was in the range of 200 to 500 nM. In the case of `CCOC(=O)c1nn2c(c1C)C(=O)N(c1ccc(-c3ncc4cc(C(F)(F)F)ccc4n3)cc1C)CC2` [compound 056, ethyl 3-methyl-5-(2-methyl-4-(6-(trifluoromethyl)quinazolin-2-yl)phenyl)-4-oxo-4,5,6,7-tetrahydropyrazolo[1,5-a]pyrazine-2-carboxylate], the IC50 is below 200 nM. For `Cc1cc(-c2ncc3cc(C(F)(F)F)ccc3n2)ccc1N1CCn2nc(CO)c(C)c2C1=O` [compound 057, 2-(hydroxymethyl)-3-methyl-5-(2-methyl-4-(6-(trifluoromethyl)-quinazolin-2-yl)phenyl)-6,7-dihydropyrazolo[1,5-a]pyrazin-4 (5H)-one], the IC50 is below 200 nM. As for `Cc1cc(-c2ncc3cc(C(F)(F)F)ccc3n2)ccc1N1CCn2nc(C(C)O)c(C)c2C1=O` (stereo not shown) [compound 058, 2-(1-hydroxyethyl)-3-methyl-5-(2-methyl-4-(6-(trifluoromethyl)-quinazolin-2-yl)phenyl)-6,7-dihydropyrazolo[1,5-a]pyrazin-4 (5H)-one], the IC50 was below 200 nM. As to `Cc1cc(-c2ncc3cc(C(F)(F)F)ccc3n2)ccc1N1CCn2nc(C(C)(C)O)c(C)c2C1=O` [compound 059, 2-(2-hydroxypropan-2-yl)-3-methyl-5-(2-methyl-4-(6-(trifluoromethyl)-quinazolin-2-yl)phenyl)-6,7-dihydropyrazolo[1,5-a]pyrazin-4 (5H)-one], the concentration for half-maximal inhibition (IC50) was below 200 nM. Compound `Cc1cc(-c2ncc3cc(C(F)(F)F)ccc3n2)ccc1N1CCn2nc(C(=O)O)c(C)c2C1=O` [compound 060, 3-methyl-5-(2-methyl-4-(6-(trifluoromethyl)quinazolin-2-yl)phenyl)-4-oxo-4,5,6,7-tetrahydropyrazolo[1,5-a]pyrazine-2-carboxylic acid] came in with a concentration for half-maximal inhibition (IC50) of 200 to 500 nM. As to `Cc1cc(-c2ncc3cc(C(F)(F)F)ccc3n2)ccc1N1CCn2nc(CN3CCOCC3)c(C)c2C1=O` [compound 061, 3-methyl-5-(2-methyl-4-(6-(trifluoromethyl)quinazolin-2-yl)phenyl)-2-(morpholinomethyl)-6,7-dihydropyrazolo[1,5-a]pyrazin-4 (5H)-one], the IC50 was below 200 nM. For the compound `Cc1cc(-c2ncc3cc(C(F)(F)F)ccc3n2)ccc1N1CCn2nc(C(=O)N3CCOCC3)c(C)c2C1` [compound 062, (3-methyl-5-(2-methyl-4-(6-(trifluoromethyl)quinazolin-2-yl)phenyl)-4,5,6,7-tetrahydropyrazolo[1,5-a]pyrazin-2-yl)(morpholino)methanone], the 50% inhibitory concentration (IC50) was below 200 nM. As to `Cc1cc(-c2ncc3cc(C(F)(F)F)ccc3n2)ccc1N1CCn2nc(CN(C)C)c(C)c2C1=O` [compound 063, 2-((dimethylamino)methyl)-3-methyl-5-(2-methyl-4-(6-(trifluoromethyl)-quinazolin-2-yl)phenyl)-6,7-dihydropyrazolo[1,5-a]pyrazin-4 (5H)-one], the IC50 was below 200 nM. Compound `Cc1cc(-c2ncc3cc(C(F)(F)F)ccc3n2)ccc1N1CCn2ncc(Br)c2C1=O` [compound 064, 3-bromo-5-(2-methyl-4-(6-(trifluoromethyl)quinazolin-2-yl)phenyl)-6,7-dihydropyrazolo[1,5-a]pyrazin-4 (5H)-one] showed an IC50 below 200 nM. Turning to `Cc1cc(-c2ncc3cc(C(F)(F)F)ccc3n2)ccc1N1CCn2ncc(C(=O)O)c2C1=O` [compound 065, 5-(2-methyl-4-(6-(trifluoromethyl)quinazolin-2-yl)phenyl)-4-oxo-4,5,6,7-tetrahydropyrazolo[1,5-a]pyrazine-3-carboxylic acid], the half-inhibitory concentration (IC50) fell in the range of 500 to 1000 nM.

`Cc1cc(-c2ncc3cc(C(F)(F)F)ccc3n2)ccc1N1CCn2ncc(C(N)=O)c2C1=O` [compound 066, 5-(2-methyl-4-(6-(trifluoromethyl)quinazolin-2-yl)phenyl)-4-oxo-4,5,6,7-tetrahydropyrazolo[1,5-a]pyrazine-3-carboxamide] had a concentration for half-maximal inhibition (IC50) below 200 nM.

On to `Cc1cc(-c2ncc3cc(C(F)(F)F)ccc3n2)ccc1N1CCn2ncc(C#N)c2C1=O` [compound 067, 5-(2-methyl-4-(6-(trifluoromethyl)quinazolin-2-yl)phenyl)-4-oxo-4,5,6,7-tetrahydropyrazolo[1,5-a]pyrazine-3-carbonitrile], for which the IC50 was below 200 nM. As for `Cc1cc(-c2ncc3cc(C(F)(F)F)ccc3n2)ccc1N1CCn2ncc(N3CCOCC3)c2C1=O` [compound 068, 5-(2-methyl-4-(6-(trifluoromethyl)quinazolin-2-yl)phenyl)-3-morpholino-6,7-dihydropyrazolo[1,5-a]pyrazin-4 (5H)-one], the half-inhibitory concentration (IC50) was below 200 nM.

Take `Cc1cc(-c2ncc3cc(C(F)(F)F)ccc3n2)ccc1N1CCn2ncc(CN3CCOCC3)c2C1=O` [compound 070, 5-(2-methyl-4-(6-(trifluoromethyl)quinazolin-2-yl)phenyl)-3-(morpholino-methyl)-6,7-dihydropyrazolo[1,5-a]pyrazin-4 (5H)-one]: the IC50 was below 200 nM. The compound `Cc1cc(-c2ncc3cc(C(F)(F)F)ccc3n2)ccc1N1CCOc2cnn(CCN3CCOCC3)c2C1=O` [compound 071, 7-(2-methyl-4-(6-(trifluoromethyl)quinazolin-2-yl)phenyl)-1-(2-morpholinoethyl)-6,7-dihydro-1H-pyrazolo[3,4-f][1,4]oxazepin-8 (5H)-one] yielded a half-maximal inhibitory concentration (IC50) of 500 to 1000 nM. With `Cc1cc(-c2ncc3cc(C(F)(F)F)ccc3n2)ccc1N1CCOc2cnn(CCN3CCC(O)CC3)c2C1=O` [compound 072, 1-(2-(4-hydroxypiperidin-1-yl)ethyl)-7-(2-methyl-4-(6-(trifluoromethyl)-quinazolin-2-yl)phenyl)-6,7-dihydro-1H-pyrazolo[3,4-f][1,4]oxazepin-8 (5H)-one], the IC50 is 1000 to 10000 nM.
